Measurements taken from US20250268895A1, “Crystalline Forms of a BTK Inhibitor” (NOVARTIS AG, priority 2019, published 2025).
Values belong to the molecule of their own block, whether it stands above or below them.

Experiments:
Assay type in all cases: physicochemical
[1] = Solvent equilibration of Modifications B and C (stability in solvent, HT-XRPD)
Experimental: (§1) Suspensions of Modifications B and C were prepared in 15 selected solvents and let to equilibrate at RT for 2 weeks and at 50° C. for 1 week. Upon completion of the equilibration time, the solids were separated from the liquid phases, dried at ambient conditions and under vacuum (5 mbar/50° C.), and analyzed by HT-XRPD.
When the suspensions dissolved, the solvent was removed by evaporation under vacuum (initially 200 mbar/RT, then 5 mbar/50° C.). The liquid phases were also evaporated under the same conditions. Residual solids were analyzed by HT-XRPD.

[2] = Dynamic vapor sorption (DVS); details: for DVS highest change in mass: 95% RH
[3] = Physico-chemical stability under stress conditions (HR-XRPD, TGMS, HPLC assay); details: for XRPD pattern after stress conditions: all three test conditions (80° C. 1 month; 80° C./75% RH 1 month; 100° C. 3 days)
Experimental: Modifications A, B and C were subjected to the following stress conditions: • 80° C. in closed vials for 1 month; • 80° C./75% RH in open vials for 1 month; • 100° C. in closed vials for 3 days;
Afterwards, the solids were analyzed by HR-XRPD, TGMS and HPLC assay to evaluate potential solid phase change, loss on drying and chemical purity.
Upon completion of the stability test, all solids were analyzed by HR-XRPD, TGMS and HPLC assay.
Auto sampler temp.: 15° C.
Column: Waters Sunfire C18 (100×4.6 mm; 3.5 μm).
Gradient: Mobile phase A: 0.1% TFA in Water
Mobile phase B: 0.1% TFA in Acetonitrile

[4] = Conversion at room temperature monitored by HR-XRPD; details: left at room temperature
Description: Modification C (Example 2) was left at room temperature and the conversion into Modification B was monitored by HR-XRPD and it was complete after 5 days.

[5] = Solvent equilibration of Modification A (stability in solvent, HT-XRPD)
Experimental: as §1, with “Modification A” for “Modifications B and C”, “23” for “15”, “room temperature (RT)” for “RT”, “4” for “2”, “2 weeks.” for “1 week.”
When the suspensions dissolved, the solvent was removed by evaporation under vacuum (initially at 200 mbar/RT, then at 5 mbar/50° C.). The liquid phases were also evaporated under the same conditions. Residual solids were analyzed by HT-XRPD.

[6] = Granulation simulation experiments; details: water, ethanol, 2-propanol, Acetone, benzylalcohol; dried under vacuum
Experimental: Granulating solvents were added drop wise to polymorphic Form A until solid is wetted sufficiently. The suspension was stirred by Vortex between each addition. The suspension was dried under vacuum. The remaining solid form was isolated and degree of crystallinity was analyzed by XRPD and/or DSC. The tested Granulating solvents were water, ethanol, 2-propanol, Acetone, benzylalcohol.

[7] = Stability under compression; details: 5 minutes at 10 tons, hydraulic press
Experimental: 100-300 mg of polymorphic Form A was compressed for 5 minutes at 10 tons with a hydraulic press (diameter of the tablets 13 mm). The sample was then analyzed by XRPD and DSC to check for any occurring polymorphic change.

[8] = Moisture uptake at 80% and 92% RH (HT-XRPD, TGMS); details: 25° C., 24 hours
Experimental: The moisture sorption of Modification A was evaluated by exposing the solid material to 80% and 92% RH at 25° C. for 24 hours. Afterwards, the solids were analyzed by HT-XRPD to evaluate any change in crystalline phase, and by TGMS to determine the water uptake. […] Therefore, Modification A could be considered non-hygroscopic.

[9] = Dichloromethane, 50° C., 1 week
[10] = 80° C./75% RH, 1 month, open vial

- HT-XRPD Evap. ML ([1]; Acetonitrile, 50° C., 1 week): A (l.y.)
- HT-XRPD Evap. ML ([1]; Anisole, RT, 2 weeks): A (l.y.)
- HT-XRPD Ambient Dried ([1]; Chloroform, RT, 2 weeks): A (l.y)
- HT-XRPD Vacuum dried ([1]; Chloroform, RT, 2 weeks): (l.c.)
- HT-XRPD Evap. ML [1, 9]: B + C
- HT-XRPD Vacuum dried [1, 9]: B + C
- HT-XRPD Ambient Dried ([1]; Dichloromethane, RT, 2 weeks): C (l.c.)
- HT-XRPD Evap. ML ([1]; Dichloromethane, RT, 2 weeks): B + SB (l.y.)
- HT-XRPD Vacuum dried ([1]; Dichloromethane, RT, 2 weeks): B + C
- HT-XRPD Evap. ML ([1]; Ethanol, 50° C., 1 week): A (l.y.)
- HT-XRPD Evap. ML ([1]; Isopropyl acetate, 50° C., 1 week): A (l.y.)
- HT-XRPD Evap. ML ([1]; Nitromethane, RT, 2 weeks): A (l.y.)
- XRPD of solid recovered after DVS measurement ([2]; Modifications B and C, 25° C.): unchanged
- Loss on drying ([3]; 80° C., 1 month, closed vial): 0.009%
- Loss on drying [3, 10]: 0.004%
- Loss on drying ([3]; 100° C., 3 days, closed vial): 0.004%
- XRPD pattern after stress conditions [3]: unchanged
SMILES: C=CC(=O)N(C)CCOc1c(N)ncnc1-c1cc(F)cc(NC(=O)c2ccc(C3CC3)cc2F)c1C [Modification B, N-(3-(6-Amino-5-(2-(N-methylacrylamido)ethoxy)pyrimidin-4-yl)-5-fluoro-2-methylphenyl)-4-cyclopropyl-2-fluorobenzamide]
- DVS water vapor uptake ([2]; Modifications B and C): did not show significant water vapor uptake

- Time to complete conversion into Modification B [4]: 5 days
- HT-XRPD Evap. ML ([1]; 2-Methyl-2-butanol, 50° C., 1 week): A (l.y.)
- HT-XRPD Evap. ML ([1]; Acetone, 50° C., 1 week): A (l.y.)
- HT-XRPD Evap. ML ([1]; Acetonitrile, 50° C., 1 week): A (l.y.)
- HT-XRPD Evap. ML ([1]; Anisole, RT, 2 weeks): A (l.y.)
- HT-XRPD Ambient Dried ([1]; Chloroform, RT, 2 weeks): C + SC
- HT-XRPD Evap. ML ([1]; Chloroform, RT, 2 weeks): C + SC
- HT-XRPD Evap. ML ([1]; Cyclopentanone, RT, 2 weeks): A (l.y)
- HT-XRPD Evap. ML [1, 9]: C (l.y.)
- HT-XRPD Vacuum dried ([1]; Dichloromethane, RT, 2 weeks): B + C
- HT-XRPD Evap. ML ([1]; Ethanol, 50° C., 1 week): A (l.y.)
- HT-XRPD Evap. ML ([1]; Ethanol, RT, 2 weeks): A (l.y.)
- HT-XRPD Evap. ML ([1]; Isopropyl acetate, RT, 2 weeks): A (l.y.)
- HT-XRPD Evap. ML ([1]; Methanol, RT, 2 weeks): A (l.y.)
- HT-XRPD Evap. ML ([1]; Nitromethane, 50° C., 1 week): A (l.y.)
- HT-XRPD Evap. ML ([1]; Nitromethane, RT, 2 weeks): A (l.y.)
- HT-XRPD Evap. ML ([1]; Water, RT, 2 weeks): A (l.y.)
- XRPD of solid recovered after DVS measurement ([2]; Modifications B and C, 25° C.): mixture of Modifications B and C
- Loss on drying ([3]; 80° C., 1 month, closed vial): 0.007%
- Loss on drying [3, 10]: 0.006%
- Loss on drying ([3]; 100° C., 3 days, closed vial): 0.003%
- XRPD pattern after stress conditions [3]: converted to Modification B
SMILES: C=CC(=O)N(C)CCOc1c(N)ncnc1-c1cc(F)cc(NC(=O)c2ccc(C3CC3)cc2F)c1C [Modification C, N-(3-(6-Amino-5-(2-(N-methylacrylamido)ethoxy)pyrimidin-4-yl)-5-fluoro-2-methylphenyl)-4-cyclopropyl-2-fluorobenzamide]
- DVS water vapor uptake ([2]; Modifications B and C): did not show significant water vapor uptake

- HT-XRPD Evap. ML ([5]; Acetone, 50° C., 2 weeks): A (l.y.)
- HT-XRPD Evap. ML ([5]; Acetonitrile, 50° C., 2 weeks): A (l.y.)
- HT-XRPD Evap. ML ([5]; Anisole, 50° C., 2 weeks): A (l.y.)
- HT-XRPD Evap. ML ([5]; Chloroform, 50° C., 2 weeks): A + B
- HT-XRPD Vacuum dried ([5]; DCM, RT, 4 weeks): B + C
- HT-XRPD Evap. ML ([5]; Isopropyl acetate, 50° C., 2 weeks): A (l.y.)
- HT-XRPD Evap. ML ([5]; MeOH, RT, 4 weeks): A (l.y.)
- HT-XRPD Evap. ML ([5]; MeOH/Acetone 50/50, RT, 4 weeks): A (l.y.)
- HT-XRPD Evap. ML ([5]; MeOH/DCM 50/50, RT, 4 weeks): B (l.y.)
- HT-XRPD Vacuum dried ([5]; MeOH/DCM 50/50, RT, 4 weeks): B + C
- HT-XRPD Evap. ML ([5]; Nitromethane, 50° C., 2 weeks): A (l.y.)
- HT-XRPD Evap. ML ([5]; Water, 50° C., 2 weeks): A (l.y.)
- Crystallinity (XRPD and/or DSC) after granulation simulation [6]: No change of crystallinity
- Polymorphic change (XRPD and DSC) after compression [7]: no change to the material
- Solid recovered after DVS measurements ([2]; 25° and 40° C.): still Modification A
- DVS highest change in mass ([2]; 25° C.): 0.4%
- DVS highest change in mass ([2]; 40° C.): 0.3%
- Loss on drying ([3]; 80° C., 1 month, closed vial): 0.003%
- Loss on drying [3, 10]: 0.003%
- Loss on drying ([3]; 100° C., 3 days, closed vial): 0.003%
- XRPD pattern after stress conditions [3]: unchanged
- TGMS mass loss after exposure to humidity ([8]; 80% RH): 0.2%
- Hygroscopicity ([8]; 80% and 92% RH): non-hygroscopic
- Physical stability (HT-XRPD) after exposure to humidity ([8]; 80 and 92% RH): physically stable
- TGMS mass loss after exposure to humidity ([8]; 92% RH): 0.2%
SMILES: C=CC(=O)N(C)CCOc1c(N)ncnc1-c1cc(F)cc(NC(=O)c2ccc(C3CC3)cc2F)c1C [Modification A, N-(3-(6-Amino-5-(2-(N-methylacrylamido)ethoxy)pyrimidin-4-yl)-5-fluoro-2-methylphenyl)-4-cyclopropyl-2-fluorobenzamide]
- DVS water vapor uptake ([2]; 25° and 40° C., RH profile 40-0-95-0-95-40%): did not show significant water vapor uptake
